Columns and labels:
[1] = Test 4: metabolic stability test in human hepatic microsome; assay type: in vitro ADME; conditions: 0.1 mg/mL microsome, 0.1 μmol/L compound, 37° C., 30 minutes
Method: Test 4: Metabolic Stability Test in Human Hepatic Microsome
The stability of the present compound in human hepatic microsome metabolism was evaluated as mentioned below. Human hepatic microsome was obtained from Xenontech. Human hepatic microsome, NADPH, and each test compound were mixed in 25 mmol/L phosphate buffer solution (pH 7.4) to reach the following concentrations as shown below, and the mixture was incubated at 37° C. for 30 minutes. • Human hepatic microsome: 0.1 mg/mL • NAPDH: 3.2 mmol/L • Test compound: 0.1 μmol/L
The residual ratio of the test compound in each sample after 30 minutes was measured by LC-MS, and the metabolic stability in human hepatic microsome was calculated from the following formula. Metabolic stability in human hepatic microsome (mL/min/mg protein)=−LN (residual ratio)/30/0.1

[2] = biological target: human D2 receptor (Homo sapiens (Human), UniProt P14416); experiment: Test 1: binding activity for human D2 receptor ([3H]Spiperone, CHO cell membrane fraction); conditions: human D2 receptor, [3H]Spiperone
Method: (§1) Test 1: Evaluation of Binding Activity for Human 5-HT1A Receptor, Human 5-HT2A Receptor, and Human D2 Receptor
(§2) Binding affinity of the present compound for human 5-HT1A receptor, human 5-HT2A receptor, and human D2 receptor was measured by the following procedures.
(§3) Each mixture was incubated at room temperature for 60 minutes. Then, the mixture was added quickly on a glassfiber filter plate (Multiscreen FB, Millipore, Inc.) coated with 0.3% aqueous polyethylenimine, and vacuum-filtered. Radioactivity remaining on the filter was measured with a liquid scintillation counter (PerkinElmer, Inc.). Binding inhibition rate was calculated from the following formula.
(§4) Ki of each compound was calculated from the following formula. Binding inhibition constant (Ki)=IC50/(1+S/Kd) wherein S is concentration of ligand; Kd is a binding dissociation constant of ligand to membrane, which is calculated from a saturated binding experiment conducted with the same cell membrane. A small Ki value means strong binding ability to a receptor.

[3] = biological target: T1, human 5-HT1A receptor (Homo sapiens (Human), UniProt P08908); experiment: Test 2: agonist activity for human 5-HT1A receptor ([35S]GTPγS binding); assay type: biochemical; conditions: for EC50: [35S]GTPγS binding, concentration at which half the activity of Emax was obtained; for Emax at 10 µM: agonist activity in the presence of 10 μM of compound, relative to 100 μmol/L 5-HT
Method: Test 2: Evaluation of Agonist Activity for Human 5-HT1A Receptor
CHO cell membrane fraction in which human 5-HT1A receptor was expressed as used in Test 1 was purchased. To a buffer containing guanosine diphosphate were added a test compound dissolved in DMSO, each receptor membrane sample diluted with buffer, and [^35S] Guanosine 5′-O-[gamma-thio]triphosphate (GTPγS). The mixture was incubated at room temperature for 60 minutes. Then, the mixture was added quickly on a glassfiber filter plate (Multiscreen FB, Millipore, Inc.), and vacuum-filtered. Radioactivity remaining on the […] was measured with a liquid scintillation counter. Agonist activity was calculated from the following formula.

[4] = biological target: T1, human 5-HT1A receptor; experiment: Test 1: binding activity for human 5-HT1A receptor ([3H]8-OH-DPAT, CHO cell membrane fraction)
Method: as §1, §2, §3
as §4, with “IC50 value was calculated by Hill analysis (Physiology, 1910, 40, 190-200). Ki of” for “Ki of”

[5] = biological target: hERG channel (Homo sapiens (Human), UniProt Q12809); experiment: Test 6-1: inhibitory activity for hERG channel (auto patch clamp, Qpatch); assay type: cell-based; conditions: whole cell auto patch clamp, hERG-CHO cells; read-out: hERG inhibition IC50
Method: Test 6-1: Evaluation of Inhibitory Activity for hERG Channel
Inhibitory activity of the present compound for hERG channel was measured by whole cell patch clamp method with an auto patch clamp system using CHO cells in which hERG channel involved in human rapidly activating delayed rectifier potassium current (IKr) was forcibly expressed.
hERG-CHO cells purchased from ChanTest Cop. were cultured in a CO2 incubator at 37° C., and dissociated from a flask with trypsin shortly before the measurement of hERG current, to prepare a cell suspension.
Extracellular fluid: 2 mmol/L CaCl2, 1 mmol/L MgCl2, 10 mmol/L HEPES, 4 mmol/L KCl, 145 mmol/L NaCl, 10 mmol/L Glucose
Intracellular fluid: 5.4 mmol/L CaCl2, 1.8 mmol/L MgCl2, 10 mmol/L HEPES, 31 mmol/L KOH, 10 mmol/L EGTA, 120 mmol/L KCl, 4 mmol/L Na2-ATP
Test compound solution: Test compound was dissolved in DMSO to reach the concentration of 2 mmol/L or 20 mmol/L, in order to prepare a test compound solution. […] (Measurement of Current Value and Data Analysis)
The cell suspension, the extracellular fluid, the intracellular fluid, and the measurement plate were set in the auto patch clamp system, and hERG current was measured by whole cell patch clamp method. […] Each pulse interval was 15 seconds. The data analysis was carried out with Qpatch Assay Software (Biolin Scientific). The test was carried out by applying incrementally 4 concentrations of each test compound, and the average of the maximum peak tail currents which were obtained from the last 3 stimulations in each concentration was determined as the evaluated data. Based on the current inhibition rate for a pre-applied current at each concentration of each test compound, IC50 value was calculated by Hill equation with the software.

Chain of human D2 receptor (P14416 whole entry): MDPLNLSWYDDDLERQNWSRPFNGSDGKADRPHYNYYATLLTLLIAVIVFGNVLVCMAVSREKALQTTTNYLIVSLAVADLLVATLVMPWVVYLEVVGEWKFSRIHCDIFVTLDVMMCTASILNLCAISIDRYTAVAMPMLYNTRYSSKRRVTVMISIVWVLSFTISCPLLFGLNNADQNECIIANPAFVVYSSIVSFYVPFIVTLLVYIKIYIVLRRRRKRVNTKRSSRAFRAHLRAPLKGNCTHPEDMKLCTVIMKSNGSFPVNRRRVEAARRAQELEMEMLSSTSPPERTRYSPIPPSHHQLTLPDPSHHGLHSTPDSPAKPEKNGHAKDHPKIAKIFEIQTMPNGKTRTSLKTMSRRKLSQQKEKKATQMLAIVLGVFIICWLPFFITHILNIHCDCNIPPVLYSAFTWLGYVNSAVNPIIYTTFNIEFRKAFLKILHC
Chain of hERG channel (Q12809 whole entry): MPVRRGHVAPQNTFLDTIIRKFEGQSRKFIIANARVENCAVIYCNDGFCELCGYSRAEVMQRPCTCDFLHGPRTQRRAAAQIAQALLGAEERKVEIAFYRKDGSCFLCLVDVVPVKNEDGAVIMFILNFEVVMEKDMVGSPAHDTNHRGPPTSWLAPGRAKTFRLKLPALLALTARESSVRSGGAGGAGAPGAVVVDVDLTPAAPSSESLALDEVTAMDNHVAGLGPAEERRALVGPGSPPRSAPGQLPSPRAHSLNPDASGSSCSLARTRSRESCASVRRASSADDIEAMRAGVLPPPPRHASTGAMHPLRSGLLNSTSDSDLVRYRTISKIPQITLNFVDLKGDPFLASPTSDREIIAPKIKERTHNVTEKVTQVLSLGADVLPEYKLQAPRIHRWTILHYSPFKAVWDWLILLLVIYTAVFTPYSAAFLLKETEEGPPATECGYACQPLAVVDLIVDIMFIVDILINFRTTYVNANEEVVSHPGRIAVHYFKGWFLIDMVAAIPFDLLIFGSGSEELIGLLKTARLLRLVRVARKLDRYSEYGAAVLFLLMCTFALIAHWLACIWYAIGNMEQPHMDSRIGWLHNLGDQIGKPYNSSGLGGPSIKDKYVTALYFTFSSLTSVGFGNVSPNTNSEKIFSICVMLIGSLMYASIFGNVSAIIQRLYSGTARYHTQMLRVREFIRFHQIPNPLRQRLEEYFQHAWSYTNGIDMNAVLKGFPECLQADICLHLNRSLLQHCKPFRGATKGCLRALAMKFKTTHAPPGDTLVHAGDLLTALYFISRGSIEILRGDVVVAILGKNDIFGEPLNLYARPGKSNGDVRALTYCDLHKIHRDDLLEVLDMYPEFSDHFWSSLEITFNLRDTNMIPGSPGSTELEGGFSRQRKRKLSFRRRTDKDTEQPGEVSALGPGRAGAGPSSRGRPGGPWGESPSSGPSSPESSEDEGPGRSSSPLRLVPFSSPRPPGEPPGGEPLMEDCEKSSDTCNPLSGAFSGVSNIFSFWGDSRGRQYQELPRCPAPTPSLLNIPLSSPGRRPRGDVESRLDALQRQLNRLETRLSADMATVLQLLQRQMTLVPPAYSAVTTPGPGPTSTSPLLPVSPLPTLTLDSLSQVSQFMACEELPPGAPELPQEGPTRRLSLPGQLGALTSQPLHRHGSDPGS
T1 sequence (P08908 whole entry): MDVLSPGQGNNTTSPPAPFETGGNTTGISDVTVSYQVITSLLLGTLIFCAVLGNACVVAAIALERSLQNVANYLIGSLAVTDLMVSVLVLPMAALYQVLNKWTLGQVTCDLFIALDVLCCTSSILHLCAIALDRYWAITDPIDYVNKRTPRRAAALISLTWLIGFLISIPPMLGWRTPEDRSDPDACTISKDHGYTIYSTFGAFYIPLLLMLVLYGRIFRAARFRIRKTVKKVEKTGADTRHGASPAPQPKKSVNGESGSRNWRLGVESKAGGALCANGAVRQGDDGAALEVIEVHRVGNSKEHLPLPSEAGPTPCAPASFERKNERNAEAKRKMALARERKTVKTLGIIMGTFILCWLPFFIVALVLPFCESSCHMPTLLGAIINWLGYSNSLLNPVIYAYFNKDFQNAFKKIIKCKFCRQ

| Compound | Metabolic stability in human hepatic microsome [1] [mL/min/mg protein] | Ki [2] [nM] | EC50 [3] [nM] | Emax at 10 µM [3] [%] | Ki [4] [nM] | IC50 [5] [nM] |
| --- | --- | --- | --- | --- | --- | --- |
| Cc1nc2c(o1)CCN(CCN1CCC(c3noc4ccccc34)CC1)C2=O [Example 39] | 0.016 | 1860 | 9.06 | 61 | 0.84 | 1800 |
| Cc1c2c(nn1C)CCN(CCN1CCN(c3nsc4ccccc34)CC1)C2=O [Example 65] | 0.126 | 222 | 2.1 | 72 | 0.9 | 4400 |
| Cn1nc2c(c1C(F)(F)F)C(=O)N(CCN1CCN(c3nsc4ccccc34)CC1)CC2 [Example 78] | 0.459 | 343 | 0.77 | 66 | 0.46 | 5500 |
| Cc1cc2c(cn1)C(=O)N(CCN1CCN(c3noc4ccccc34)CC1)CC21CC1 [Example 21] | 0.323 | 2120 | 18 | 59 | 8.62 | 8000 |
| O=C1c2cn(C3CC3)nc2CCN1CCN1CCC(c2noc3ccccc23)CC1 [Example 76] | 0.018 | 472 | 4.13 | 35 | 6.48 | < 270 |
| Cn1cc2c(n1)CCCN(CCN1CCC(c3noc4ccccc34)CC1)C2=O [Example 41] | <0.01 | 131 | 79.3 | 45 | 10.9 | 500 |
| O=C1c2oc(C3CC3)nc2CCN1CCN1CCN(c2nsc3ccccc23)CC1 [Example 67] | 0.269 | – | 3.19 | 65 | 1.17 | 1600 |
| Cc1nc2c(o1)CCN(CCN1CCN(c3nsc4ccccc34)CC1)C2=O [Example 51] | 0.074 | 993 | 2.08 | 61 | 0.23 | 5100 |
| O=C1c2cncnc2CCN1CCN1CCN(c2nsc3ccccc23)CC1 [Example 58] | 0.092 | 780 | 42.1 | 51 | 6.9 | 6000 |
| O=c1c2cnccc2ccn1CCN1CCN(c2nsc3ccccc23)CC1 [Example 11] | 0.245 | 316 | – | – | 2.95 | 2600 |

The next lines start with results.

| Metabolic stability in human hepatic microsome [1] [mL/min/mg protein] | Ki [2] [nM] | EC50 [3] [nM] | Emax at 10 µM [3] [%] | Ki [4] [nM] | Compound | IC50 [5] [nM] |
| --- | --- | --- | --- | --- | --- | --- |
| <0.05 | 743 | 31 | 46 | 5.17 | Cn1cc2c(n1)C(=O)N(CCN1CCC(c3noc4ccccc34)CC1)CC2 [Example 156] | 2100 |
| 0.095 | 237 | – | 36 | 5.63 | COc1ncc2c(n1)CCN(CCN1CCN(c3nsc4ccccc34)CC1)C2=O [Example 177] | 3700 |
| <0.01 | 136 | 447 | 42 | 17.6 | O=C1c2cn[nH]c2CCCN1CCN1CCC(c2noc3ccccc23)CC1 [Example 97, 5-{2-[4-(1,2-Benzoisoxazol-3-yl)piperidin-1-yl]ethyl}-5,6,7,8-tetrahydropyrazolo[4,3-c]azepin-4(1H)-one] | 2600 |
| 0.459 | 169 | 9.44 | 64 | 1.58 | Cn1c(F)cc2c1CCN(CCN1CCN(c3nsc4ccccc34)CC1)C2=O [Example 112, 5-{2-[4-(1,2-Benzoisothiazol-3-yl)piperazin-1-yl]ethyl}-2-fluoro-1-methyl-1,5,6,7-tetrahydro-4H-pyrrolo[3,2-c]pyridin-4-one] | 2200 |
| <0.05 | 139 | 6.22 | 57 | 0.17 | Cc1cc2c(n1C)CCCN(CCN1CCC(c3noc4ccccc34)CC1)C2=O [Example 166] | 1000 |
| <0.01 | 280 | 185 | 40 | 21.5 | Cc1n[nH]c2c1C(=O)N(CCN1CCC(c3noc4ccccc34)CC1)CC2 [Example 99, 5-{2-[4-(1,2-Benzoisoxazol-3-yl)piperidin-1-yl]ethyl}-3-methyl-1,5,6,7-tetrahydro-4H-pyrazolo[4,3-c]pyridin-4-one] | 2900 |
| 0.083 | 76 | 100 | 32 | 27.6 | Cc1cncc2c1CCN(CCN1CCC(c3noc4ccccc34)CC1)C2=O [Example 138] | 1200 |
| 0.196 | 508 | 55 | 61 | 13.8 | CC(C)n1cc2c(n1)CCN(CCN1CCN(c3nsc4ccccc34)CC1)C2=O [Example 162] | 1200 |
| 0.097 | – | 69.5 | 48 | 11.7 | CC(C)c1nc2c(o1)C(=O)N(CCN1CCC(c3noc4ccccc34)CC1)CC2 [Example 164] | 1000 |
| <0.05 | – | 690 | 49 | 98.4 | O=C1c2cn[nH]c2CCN1CCN1CCC(c2noc3ccccc23)CC1 [Example 189, 5-{2-[4-(1,2-Benzoisoxazol-3-yl)piperidin-1-yl]ethyl}-1,5,6,7-tetrahydro-4H-pyrazolo[4,3-c]pyridin-4-one] | 1800 |
| <0.05 | 216 | 6180 | 17 | 203 | O=C1c2cnn(C3CC3)c2CCN1CCN1CCC(c2noc3ccccc23)CC1 [Example 161] | – |
| 0.113 | 327 | 921 | 12 | 217 | CC(C)n1ncc2c1CCN(CCN1CCN(c3nsc4ccccc34)CC1)C2=O [Example 158] | – |

Reference: patent US10745401B2, “Condensed lactam derivative” (Sumitomo Dainippon Pharma Co., Ltd., priority 2018, dated 2020)
